Test results taken from the supplement of paper PMC10307832.

Columns and labels:
[1] = compound: NC(=O)c1ccc(N(C(N)=O)c2c(F)cccc2F)nc1-c1ccc(F)cc1F [VX-702]; assay: relative viability (nuclei count vs DMSO), 5 days (fraction); higher = more cells survive
Outline: (§1)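 Only plates meeting two conditions passed: control CV below 25% and at least one doubling. Lung cancer cell lines, kept overnight at 37 °C in 1536-well plates, were pinned with five library-drug doses (not always all listed) √10 apart on vehicle-anchored plates and grown 5 days without medium change. A one-step fix, permeabilisation and Hoechst stain preceded 4× imaging and MetaXpress nuclear counting. Viability equals treated-well nuclei divided by vehicle-well nuclei, as the median over plates.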

[2] = compound: CC(C)(C)c1nc(-c2cccc(NS(=O)(=O)c3c(F)cccc3F)c2F)c(-c2ccnc(N)n2)s1 [Dabrafenib]; assay: as above
Outline: as §1

Cell Line | relative viability ([1]; 0.02 µM) | relative viability ([1]; 0.2 µM) | relative viability ([1]; 0.6325 µM) | relative viability ([1]; 2 µM) | relative viability ([2]; 0.009487 µM) | relative viability ([2]; 0.03 µM) | relative viability ([2]; 0.09487 µM) | relative viability ([2]; 0.3 µM) | relative viability ([2]; 0.003 µM)
NCI-H522 | 0.989 | 0.982 | 0.928 | 0.992 | 1.2 | 1 | 0.97 | 1.07 | –
NCI-H596 | 1.04 | 0.829 | 1.02 | 1.07 | 1.13 | 0.768 | 1.03 | 1.1 | –
NCI-H647 | 0.855 | 0.874 | 0.996 | 1.14 | 0.967 | 0.71 | 0.871 | 1.01 | –
NCI-H650 | 1.04 | – | 1.07 | 1.24 | 1.17 | 0.708 | 0.575 | 0.564 | –
NCI-H661 | 1.02 | 0.98 | 1.04 | 1.1 | 0.967 | 0.94 | 0.986 | 0.958 | 0.988
NCI-H727 | 1.09 | 1 | 0.84 | 1.04 | 0.998 | 0.782 | 0.902 | 1.1 | –
NCI-H838 | 0.968 | 0.948 | 0.984 | 1.07 | 1.07 | 0.889 | 0.896 | 1.05 | 0.966
NCI-H1299 | 1.09 | 0.994 | 1.07 | 1.12 | 0.988 | 0.963 | 0.92 | 0.842 | 0.991
